Patent US20140093513A1, “METHODS OF LOWERING PROPROTEIN CONVERSATE SUBTILISIN/KEXIN TYPE 9 (PCSK9)” (Catabasis Pharmaceuticals, Inc., priority 2012, published 2014)

Assays:
[1] = system: Zucker fa/fa Rat model of Dyslipidemia; test: Plasma triglyceride level in the Zucker fa/fa rat model of dyslipidemia; type: in vivo; settings: Zucker rats, po qd, I-8 at 10, 30, 100 and 300 mg/kg; niacin/EPA 100/200 mg/kg; day 4 fed blood sample, FIG. 3
Method: Male Zucker rats (HsdHlr: Zucker-Lepr̂fa) between 8-10 weeks of age were purchased from Harlan and maintained on Purina Rodent Diet (5001) for the duration of the study. Animals were randomized and assigned to treatment arms based on body weight and plasma triglyceride (TG) levels (n=8). Inclusion criteria for the study include body weight >300 grams and fed TG levels in plasma >800 mg/dL. Dosing will be initiated on day 1 and continue through day 5. Dosing will be daily (qd) by oral gavage (po) for all treatment arms (Compound I-8 was administered orally at 4 different doses, 10, 30, 100 and 300 mg/kg; in addition, a combination of niacin/EPA in a ratio of 100/200 mg/kg was also employed). Body weights will be measured for all rats on days 1 through 5. On day 4, a blood sample (fed) will be collected from each rat, processed for plasma and stored at −80° C. Plasma triglyceride level was determined from commercial kits using standard protocols. […] Because compound I-8 was able to lower fed plasma triglyceride, it is useful to treat dyslipidemia as well as other diseases such as type I hyperlipoproteinemia and type 5 hyperlipoproteinemia.

PCSK9 = PCSK9 secretion assay in HepG2 cells (PCSK9 ELISA); type: cell-based
In short: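 HepG2 cells in serum-free DMEM with compound added in FBS (ethanol-matched) and incubated 16 hours, in triplicate. Secreted PCSK9 in supernatant measured by ELISA (A450), with AlamarBlue viability check. IC50 obtained from at least 6 concentrations.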

ApoE*3 Leiden mice = test: Plasma lipids and liver weight of ApoE*3 Leiden mice on Western type diet, 16 weeks of treatment; type: in vivo; settings: I-8 in WTD at 7.5 g/kg
Method: The same experimental design used in example 6 was used. Two treatment groups were used (n=15). The control animals were kept on a Western type diet (WTD) consisting of 1% cholesterol, 15% cacao butter, 40.5% sucrose, and 1% corn oil. For the treatment group, compound I-8 was administered in the above WTD at a ratio of 7.5 g/kg. Animals were maintained on the WTD or treatment group for 16 weeks. At the conclusion of the study, plasma cholesterol and triglyceride levels were recorded, as well as the weight of the liver. There was a significant decrease in plasma cholesterol, triglyceride levels as well as liver weight in the treatment group. After 16 weeks of treatment, the cholesterol level of the treatment group was 420 mg/dL, compared with a level of 750 mg/dL for the control group; the triglyceride level was 110 mg/dL, compared with a level of 160 mg/dL for the control group.

ApoE3Leiden mice = test: Plasma cholesterol and triglycerides in ApoE3Leiden mice on Western type diet, 2 and 4 weeks of treatment; type: in vivo; settings: female APOE*3Leiden mice, WTD, I-8 0.75% w/w, atorvastatin 0.0015% w/w in diet
Method: The study was conducted using female APOE*3Leiden mice (groups of each n=10) and one untreated reference control group on chow (n=5). To induce dyslipidemia, a high cholesterol Western type diet containing 1% cholesterol, 15% cacao butter, 40.5% sucrose and 1% corn oil (WTD) was fed to the mice for a total experimental period of 20 weeks (of which 4 weeks are a run-in period).
The dyslipidemic mice were grouped on the basis of plasma cholesterol at t=0 assayed in 4 h fasting blood. Mice with low cholesterol after the run-in period were excluded so that homogenous experimental groups were obtained. A group of reference mice (n=5) remained on a chow diet during the complete study period (normolipidemic reference mice).
This mix was then added to the master mix (containing the rest of the ingredients) and mixed thoroughly. The diet was frozen to −20° C. On the subsequent day, the diet was broken into small pellets (approx 5 g per piece) and freeze dried, and stored in vacuum sealed bags (approx 500 g) at −20° C. until use. The diets were refreshed daily and unused diet was discarded.
1) Body weight at −4, 0, 2, 4 weeks 2) Food intake (g/day/mouse) at 0, 2, 4 weeks (per cage) 3) Plasma total cholesterol at −4, 0, 2, 4 weeks (individually) 4) Plasma triglycerides at −4, 0, 2, 4 weeks (individually) 5) Lipoprotein profiles at 0 (pool of all animals) and 4 weeks (cholesterol distribution over VLDL, LDL and HDL-sized particles, analysis on group level).
EDTA plasma was collected in weeks −4, 0, 2 and 4 weeks. Plasma cholesterol, plasma triglyceride levels and lipoprotein profileswere assayed immediately in fresh plasma.

## CC/C=C\C/C=C\C/C=C\C/C=C\C/C=C\CCCC(=O)NCCNC(=O)c1cccnc1 [Compound I-8, N-(2-(5Z,8Z,11Z,14Z,17Z)-eicosa-5,8,11,14,17-pentaenamidoethyl)nicotinamide]
[1]
  fed plasma triglyceride level: dose dependent decrease
PCSK9; HepG2 cells incubated with 10 μM of atorvastatin along with the test article, FIG. 2
  PCSK9 levels in HepG2 cells incubated with atorvastatin: decrease PCSK9 levels in a dose response manner
PCSK9; HepG2 cells, 16 hours incubation, at least 6 concentrations
  IC50: < 25 µM
PCSK9; HepG2 cells, at 25 and 50 μM, FIG. 1
  lowering of PCSK9: significant lowering of PCSK9
ApoE*3 Leiden mice; FIG. 7
  liver weight: statistically significant drop
ApoE*3 Leiden mice; control group 160 mg/dL
  triglyceride level after 16 weeks of treatment: 110 mg/dL
ApoE*3 Leiden mice; control group 750 mg/dL
  cholesterol level after 16 weeks of treatment: 420 mg/dL
ApoE3Leiden mice; 2 weeks of treatment, FIG. 4
  plasma cholesterol at t=2 weeks: statistically significant reduction
ApoE3Leiden mice; 4 weeks, FIG. 5
  plasma cholesterol after 4 weeks of treatment: Comparable level of cholesterol reduction
ApoE3Leiden mice; 4 weeks, FIG. 6
  plasma triglyceride levels after 4 weeks of treatment: significant reduction
